In ChEMBL document CHEMBL1201862, “PubChem BioAssay data set” (2004):
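The compound was tested at five concentrations on cells cultured in 96-well plates, with a 48-hour exposure period. Here, GI50 denotes the concentration required for 50% inhibition of growth.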 Activity calls are given as the source filed them. No stated cut-off is given here; in the data, active = GI50 up to about 1.1 µM and inactive = higher.

Legend:
Test in all cases: NCI tumour cell line growth inhibition, 48 h
UO-31 = test system: UO-31
KM12 = test system: KM12
LOX IMVI = test system: LOX IMVI
NCI-H522 = test system: NCI-H522
SNB-75 = test system: SNB-75
HCC 2998 = test system: HCC 2998
NCI/ADR-RES = test system: NCI/ADR-RES
UACC-62 = test system: UACC-62
SK-MEL-5 = test system: SK-MEL-5
IGROV-1 = test system: IGROV-1
MDA-MB-231 = test system: MDA-MB-231
OVCAR-5 = test system: OVCAR-5
HCT-116 = test system: HCT-116
CAKI-1 = test system: CAKI-1
HOP-62 = test system: HOP-62
HT-29 = test system: HT-29
SF-539 = test system: SF-539
MDA-MB-435 = test system: MDA-MB-435
HOP-92 = test system: HOP-92
HL-60 = test system: HL-60

| SMILES | GI50 (UO-31) | GI50 (KM12) | GI50 (LOX IMVI) | GI50 (NCI-H522) | GI50 (SNB-75) | GI50 (HCC 2998) | GI50 (NCI/ADR-RES) | GI50 (UACC-62) | GI50 (SK-MEL-5) | GI50 (IGROV-1) | GI50 (MDA-MB-231) | GI50 (OVCAR-5) | GI50 (HCT-116) | GI50 (CAKI-1) | GI50 (HOP-62) | GI50 (HT-29) | GI50 (SF-539) | GI50 (MDA-MB-435) | GI50 (HOP-92) | GI50 (HL-60) |
| --- | --- | --- | --- | --- | --- | --- | --- | --- | --- | --- | --- | --- | --- | --- | --- | --- | --- | --- | --- | --- |
| CN(C)c1ccc(/C=N/CC2CCCN3CCCCC23)cc1 (stereo not given) | > 100 µM (inactive) | > 100 µM (inactive) | > 100 µM (inactive) | > 100 µM (inactive) | > 100 µM (inactive) | > 100 µM (inactive) | > 100 µM (inactive) | > 100 µM (inactive) | 58.7 µM (inactive) | > 100 µM (inactive) | > 100 µM (inactive) | > 100 µM (inactive) | > 100 µM (inactive) | > 100 µM (inactive) | > 100 µM (inactive) |  |  |  |  |  |
| COc1ccc2c(c1)CC[C@@H]1C2CC[C@]2(C)C(=C=CP(=O)(O)O)CCC12 (stereo not given in full) |  | > 100 µM (inactive) | > 100 µM (inactive) | > 100 µM (inactive) | > 100 µM (inactive) | > 100 µM (inactive) | > 100 µM (inactive) | > 100 µM (inactive) | > 100 µM (inactive) | > 100 µM (inactive) |  | > 100 µM (inactive) | > 100 µM (inactive) | > 100 µM (inactive) | > 100 µM (inactive) | > 100 µM (inactive) | > 100 µM (inactive) | > 100 µM (inactive) | > 100 µM (inactive) |  |
| CN(/N=C/C=N/N(C)C1=NCCCCN1)C1=NCCCCN1 | > 100 µM (inactive) |  | > 100 µM (inactive) | > 100 µM (inactive) | > 100 µM (inactive) | > 100 µM (inactive) | > 100 µM (inactive) | > 100 µM (inactive) | > 100 µM (inactive) | > 100 µM (inactive) | > 100 µM (inactive) | > 100 µM (inactive) | > 100 µM (inactive) | > 100 µM (inactive) | > 100 µM (inactive) | > 100 µM (inactive) | > 100 µM (inactive) | > 100 µM (inactive) |  |  |
| COc1cc2c(cc1OC)[C@H]1CN3CCC[C@H]3C=C1c1ccc(OC)c(O)c1-2 | 0.000959 µM (active) | 0.000519 µM (active) | 0.000329 µM (active) | 0.000487 µM (active) | 0.000566 µM (active) | 0.0029 µM (active) |  | < 0.0001 µM (active) | 0.000539 µM (active) | 0.000661 µM (active) | 0.00378 µM (active) | 0.000653 µM (active) | 0.000452 µM (active) | < 0.0001 µM (active) | < 0.0001 µM (active) | 0.000656 µM (active) | 0.000711 µM (active) | 0.00264 µM (active) | < 0.0001 µM (active) | 0.000487 µM (active) |
| O=C(O)CCc1ccc2c(c1)C(=O)CC2 | > 100 µM (inactive) | > 100 µM (inactive) | > 100 µM (inactive) | > 100 µM (inactive) |  | > 100 µM (inactive) | > 100 µM (inactive) | > 100 µM (inactive) | > 100 µM (inactive) | > 100 µM (inactive) | 80.5 µM (inactive) | > 100 µM (inactive) | > 100 µM (inactive) |  | > 100 µM (inactive) | > 100 µM (inactive) | > 100 µM (inactive) | > 100 µM (inactive) |  | > 100 µM (inactive) |
| C#CCn1ncc2c(SC)ncnc21 | > 100 µM (inactive) | > 100 µM (inactive) | > 100 µM (inactive) | > 100 µM (inactive) | 33.8 µM (inactive) | > 100 µM (inactive) | > 100 µM (inactive) | > 100 µM (inactive) | > 100 µM (inactive) | > 100 µM (inactive) | > 100 µM (inactive) | > 100 µM (inactive) | > 100 µM (inactive) | > 100 µM (inactive) | > 100 µM (inactive) | > 100 µM (inactive) | > 100 µM (inactive) | > 100 µM (inactive) | > 100 µM (inactive) |  |
| O=C1OC2(CCCCC2)C(Oc2ccc(Cl)cc2)=C1F | 49.5 µM (inactive) | 40.1 µM (inactive) | 27.9 µM (inactive) | 12.7 µM (inactive) | 89.1 µM (inactive) | 22.3 µM (inactive) |  | 22.1 µM (inactive) | 12.9 µM (inactive) | 54.8 µM (inactive) | 77.3 µM (inactive) | 74 µM (inactive) | 35.7 µM (inactive) | 77.4 µM (inactive) | > 100 µM (inactive) | 26.8 µM (inactive) | > 100 µM (inactive) | 35.6 µM (inactive) | 20.4 µM (inactive) | 23.7 µM (inactive) |
| O=C1Nc2ccccc2/C1=N/Nc1nc(-c2ccc(Br)cc2)cs1 | 10.3 µM (inactive) | 30.3 µM (inactive) | 17.4 µM (inactive) | 25.9 µM (inactive) | 19.7 µM (inactive) | 31.8 µM (inactive) | 18 µM (inactive) | 20.6 µM (inactive) | 15.6 µM (inactive) | 0.678 µM (active) | 17.5 µM (inactive) | 23.8 µM (inactive) | 26.7 µM (inactive) | 18.6 µM (inactive) | 14.6 µM (inactive) | 17.7 µM (inactive) | 17.5 µM (inactive) | 36.5 µM (inactive) | 11.4 µM (inactive) |  |
| O=C(Cc1ccccc1)NN1C(=O)/C(=C\c2cccc([N+](=O)[O-])c2)S/C1=N\c1ccccc1 | > 100 µM (inactive) | > 100 µM (inactive) |  |  | > 100 µM (inactive) | > 100 µM (inactive) | > 100 µM (inactive) | > 100 µM (inactive) | > 100 µM (inactive) | > 100 µM (inactive) | > 100 µM (inactive) | > 100 µM (inactive) | > 100 µM (inactive) |  | > 100 µM (inactive) | > 100 µM (inactive) | > 100 µM (inactive) | > 100 µM (inactive) | 44 µM (inactive) |  |
| O=c1cc(-c2ccccc2)oc2c(-c3cc(Cl)cc4c(=O)cc(-c5ccccc5)oc34)cc(Cl)cc12 | 16.8 µM (inactive) | 20 µM (inactive) | 11.3 µM (inactive) | 14.1 µM (inactive) | 4.49 µM (inactive) | 47.9 µM (inactive) | 28.8 µM (inactive) | 11.6 µM (inactive) | 15.5 µM (inactive) | 22.5 µM (inactive) | 32.7 µM (inactive) | 37.9 µM (inactive) |  |  | 31 µM (inactive) | 34 µM (inactive) | 17.8 µM (inactive) | 26.5 µM (inactive) |  | 50.1 µM (inactive) |
| c1csc(-c2ccc(-c3cccc4nsnc34)s2)c1 | > 100 µM (inactive) | > 100 µM (inactive) | > 100 µM (inactive) | 71.6 µM (inactive) | 49.3 µM (inactive) | > 100 µM (inactive) | > 100 µM (inactive) | > 100 µM (inactive) | > 100 µM (inactive) |  | > 100 µM (inactive) | 71.1 µM (inactive) | 94.8 µM (inactive) | 35.8 µM (inactive) | 27.4 µM (inactive) |  | > 100 µM (inactive) | > 100 µM (inactive) |  |  |
| CCOC(=O)c1nc2ccccc2nc1Oc1ccc(F)cc1 | > 100 µM (inactive) | > 100 µM (inactive) | > 100 µM (inactive) |  | 11.4 µM (inactive) |  | > 100 µM (inactive) | > 100 µM (inactive) | > 100 µM (inactive) | > 100 µM (inactive) | > 100 µM (inactive) | > 100 µM (inactive) | > 100 µM (inactive) |  | > 100 µM (inactive) | > 100 µM (inactive) | > 100 µM (inactive) | > 100 µM (inactive) | 2.64 µM (inactive) |  |
| COc1ccc2oc(=O)c(-c3csc(-c4ccccc4)n3)cc2c1 | 24 µM (inactive) | > 100 µM (inactive) | 54.8 µM (inactive) |  | 37.3 µM (inactive) | 95.7 µM (inactive) |  | 34.5 µM (inactive) | 45.2 µM (inactive) | 32.6 µM (inactive) | 43.4 µM (inactive) | > 100 µM (inactive) | 35.6 µM (inactive) | > 100 µM (inactive) | 17.4 µM (inactive) | 55.1 µM (inactive) | 16.9 µM (inactive) | > 100 µM (inactive) | 24.3 µM (inactive) | > 100 µM (inactive) |
| O=C(O)C(Cc1cc(I)c(O)c(I)c1)C1CCCCC1 (stereo not given) | 45.7 µM (inactive) | 30.4 µM (inactive) | 34 µM (inactive) | 29.3 µM (inactive) | 37.6 µM (inactive) | 27.2 µM (inactive) | 37.4 µM (inactive) | 33.1 µM (inactive) | 22.4 µM (inactive) | 27.5 µM (inactive) | 21.8 µM (inactive) | 49.2 µM (inactive) | 26.5 µM (inactive) | 30.6 µM (inactive) | 24.5 µM (inactive) | 30.8 µM (inactive) |  | 60.8 µM (inactive) | 33.5 µM (inactive) |  |
| O=c1c2ccccc2nc2sc(/N=C/C=C/c3ccccc3)nn12 | 77.4 µM (inactive) | > 100 µM (inactive) | 56.9 µM (inactive) | > 100 µM (inactive) | > 100 µM (inactive) | > 100 µM (inactive) | > 100 µM (inactive) | > 100 µM (inactive) | > 100 µM (inactive) | > 100 µM (inactive) |  | > 100 µM (inactive) | > 100 µM (inactive) | > 100 µM (inactive) | > 100 µM (inactive) | > 100 µM (inactive) | > 100 µM (inactive) | > 100 µM (inactive) | > 100 µM (inactive) |  |
| Cc1ncc(COP(=O)(O)O)c(/C=C2\SC(=S)NC2=O)c1O | > 100 µM (inactive) | > 100 µM (inactive) | > 100 µM (inactive) | > 100 µM (inactive) | > 100 µM (inactive) | > 100 µM (inactive) | > 100 µM (inactive) | > 100 µM (inactive) | > 100 µM (inactive) | > 100 µM (inactive) | > 100 µM (inactive) | > 100 µM (inactive) | > 100 µM (inactive) | > 100 µM (inactive) | > 100 µM (inactive) | > 100 µM (inactive) | > 100 µM (inactive) | > 100 µM (inactive) | > 74.5 µM (inactive) |  |
